# Read-outs that look alike come from different tables or passages of the source.
# What was measured:
# Human αvβ3 = molecular target: T1, Human αvβ3 (Homo sapiens, UniProt P05106+P06756); test: In vitro solid phase purified αvβ3 binding assay (vitronectin/αvβ3)
# T1 construct: purchased Chemicon International Inc., Temecula, Calif
# Experimental: (§1) In vitro Solid Phase Purified αvβ3 Binding Assay The vitronectin/αvβ3 binding assay methods were derived from Mehta et al. (Biochem J. 1998, 330, 861). Human αvβ3 (Chemicon International Inc., Temecula, Calif.), at a concentration of 1 μg/ml dissolved in Tris buffer (20 mM Tris, 1 mM CaCl2, 1 mM MgCl2, 10 μM MnCl2, 150 mM NaCl), was immobilized on Immulon 96 well plates (Dynex Technologies, Chantilly, Va.) overnight at 4° C. Plates were washed and treated with blocking buffer (3% BSA in Tris buffer) for 2 h at 37 C. Plates were then rinsed 2 times in Tris buffer containing 0.3% BSA and 0.2% Tween20 (polyoxyethylenesorbitan monolaurate). Five minutes prior to the addition of 5 nM vitronectin (Sigma, St. Louis, Mo.), compounds of the invention were added to wells in duplicate. Each plate included c-RGDfV as an internal control. Following a 3 hour incubation at 37° C., plates were washed 5 times in assay buffer. An anti-human vitronectin IgG rabbit polyclonal antibody (Calbiochem, San Diego, Calif.) was added (1:2000) and plates were incubated for 1 hour at room temperature. VectaStain ABC peroxidase kit reagents (Vector Laboratories, Burlingame, Calif.) employing a biotin labeled anti-rabbit IgG, were utilized for detection of bound antibody. Plates were read at 490 nm on a Molecular Devices (Sunnyvale, Calif.) microplate reader. […] The plate was covered and incubated overnight at 4° C. The GPIIb/IIIa solution was discarded and 150 μl of 5% BSA was added and incubated at RT for 1–3 h. The plate was washed extensively with modified Tyrodes buffer. Biotinylated fibrinogen (25 μl/well) at 2× final concentration was added to the wells that contain the test compounds (25 μl/well). The plate was covered and incubated at RT for 2–4 h. Twenty minutes prior to incubation completion, one drop of Reagent A (VectaStain ABC Horse Radish Peroxidase kit, Vector Laboratories, Inc.) and one drop Reagent B were added with mixing to 5 mL modified Tyrodes buffer mix and let stand. The ligand solution was discarded and the plate washed (5×200 μl/well) with modified Tyrodes buffer. Vecta Stain HRP-Biotin-Avidin reagent (50 μl/well, as prepared above) was added and incubated at RT for 15 min. The Vecta Stain solution was discarded and the wells washed (5×200 μl/well) with modified Tyrodes buffer. Developing buffer (10 mL of 50 mM citrate/phosphate buffer @ pH 5.3, 6 mg o-phenylenediamine, 6 μl 30% H2O2; 50 μl/well) was added and incubated at rt for 3–5 min, and then 2 N H2SO4 (50 μl/well) was added. The absorbance was read at 490 nm.
# GPIIb/IIIa = GPIIb/IIIa (Homo sapiens, UniProt P05106+P08514); test: In vitro solid phase purified glycoprotein IIb/IIIa binding assay (biotinylated fibrinogen)
# Experimental: as §1
# [1] = isolated human αvβ3, 5 nM vitronectin, read-out: αvβ3 Binding IC50
# [2] = RGD-affinity purified GPIIb/IIIa, biotinylated fibrinogen, read-out: GPIIb/IIIa Binding IC50
# Sequence of GPIIb/IIIa (P08514 32-887 limits assumed): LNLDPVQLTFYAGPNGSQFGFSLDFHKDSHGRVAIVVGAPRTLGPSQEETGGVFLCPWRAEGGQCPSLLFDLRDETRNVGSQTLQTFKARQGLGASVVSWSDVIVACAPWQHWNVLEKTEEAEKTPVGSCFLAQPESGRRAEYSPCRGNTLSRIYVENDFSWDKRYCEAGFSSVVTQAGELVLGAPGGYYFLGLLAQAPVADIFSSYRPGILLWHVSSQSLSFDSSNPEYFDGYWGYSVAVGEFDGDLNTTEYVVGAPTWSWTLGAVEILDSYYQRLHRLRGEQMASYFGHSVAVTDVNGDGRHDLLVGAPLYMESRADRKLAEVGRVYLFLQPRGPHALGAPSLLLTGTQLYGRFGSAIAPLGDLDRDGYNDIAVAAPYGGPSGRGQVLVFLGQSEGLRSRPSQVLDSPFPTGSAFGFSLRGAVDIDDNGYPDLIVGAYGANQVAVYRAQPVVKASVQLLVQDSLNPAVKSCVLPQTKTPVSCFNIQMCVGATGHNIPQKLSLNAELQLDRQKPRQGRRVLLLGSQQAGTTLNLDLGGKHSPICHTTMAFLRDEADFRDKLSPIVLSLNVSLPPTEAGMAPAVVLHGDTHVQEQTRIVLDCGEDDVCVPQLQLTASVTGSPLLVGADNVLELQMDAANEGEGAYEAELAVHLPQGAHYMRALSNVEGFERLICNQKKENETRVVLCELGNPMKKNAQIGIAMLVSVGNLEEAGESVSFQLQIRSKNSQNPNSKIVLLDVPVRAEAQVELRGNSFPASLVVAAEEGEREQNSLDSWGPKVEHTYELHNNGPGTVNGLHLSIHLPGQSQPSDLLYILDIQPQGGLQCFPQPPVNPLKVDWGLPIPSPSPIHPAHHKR
# Sequence of GPIIb/IIIa (P08514 891-1039 partner limits assumed): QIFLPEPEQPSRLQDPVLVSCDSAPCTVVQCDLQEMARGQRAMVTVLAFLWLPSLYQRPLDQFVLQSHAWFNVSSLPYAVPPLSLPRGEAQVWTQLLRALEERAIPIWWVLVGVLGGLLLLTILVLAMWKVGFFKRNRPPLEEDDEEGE
# Sequence of GPIIb/IIIa (P05106 27-788): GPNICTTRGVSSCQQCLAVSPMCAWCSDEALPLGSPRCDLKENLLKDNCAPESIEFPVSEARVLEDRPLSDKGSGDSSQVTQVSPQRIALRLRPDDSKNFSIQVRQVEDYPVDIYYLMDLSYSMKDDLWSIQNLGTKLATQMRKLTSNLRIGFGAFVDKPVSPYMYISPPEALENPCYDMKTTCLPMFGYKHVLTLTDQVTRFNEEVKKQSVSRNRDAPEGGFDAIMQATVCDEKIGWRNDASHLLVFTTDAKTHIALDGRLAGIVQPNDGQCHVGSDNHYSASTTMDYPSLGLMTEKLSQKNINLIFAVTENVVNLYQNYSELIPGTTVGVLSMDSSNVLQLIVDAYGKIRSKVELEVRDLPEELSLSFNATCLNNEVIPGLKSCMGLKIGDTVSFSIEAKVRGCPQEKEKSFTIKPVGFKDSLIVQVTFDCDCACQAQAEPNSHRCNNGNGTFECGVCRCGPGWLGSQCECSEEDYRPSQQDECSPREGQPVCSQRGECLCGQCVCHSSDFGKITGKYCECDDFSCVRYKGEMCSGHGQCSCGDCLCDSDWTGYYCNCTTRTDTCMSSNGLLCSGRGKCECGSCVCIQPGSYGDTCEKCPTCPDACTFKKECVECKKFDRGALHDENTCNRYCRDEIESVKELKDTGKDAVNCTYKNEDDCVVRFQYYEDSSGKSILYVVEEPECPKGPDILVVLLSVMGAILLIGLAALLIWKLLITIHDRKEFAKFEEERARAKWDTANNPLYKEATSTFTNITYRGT
# T1 sequence (P06756 31-889 limits assumed): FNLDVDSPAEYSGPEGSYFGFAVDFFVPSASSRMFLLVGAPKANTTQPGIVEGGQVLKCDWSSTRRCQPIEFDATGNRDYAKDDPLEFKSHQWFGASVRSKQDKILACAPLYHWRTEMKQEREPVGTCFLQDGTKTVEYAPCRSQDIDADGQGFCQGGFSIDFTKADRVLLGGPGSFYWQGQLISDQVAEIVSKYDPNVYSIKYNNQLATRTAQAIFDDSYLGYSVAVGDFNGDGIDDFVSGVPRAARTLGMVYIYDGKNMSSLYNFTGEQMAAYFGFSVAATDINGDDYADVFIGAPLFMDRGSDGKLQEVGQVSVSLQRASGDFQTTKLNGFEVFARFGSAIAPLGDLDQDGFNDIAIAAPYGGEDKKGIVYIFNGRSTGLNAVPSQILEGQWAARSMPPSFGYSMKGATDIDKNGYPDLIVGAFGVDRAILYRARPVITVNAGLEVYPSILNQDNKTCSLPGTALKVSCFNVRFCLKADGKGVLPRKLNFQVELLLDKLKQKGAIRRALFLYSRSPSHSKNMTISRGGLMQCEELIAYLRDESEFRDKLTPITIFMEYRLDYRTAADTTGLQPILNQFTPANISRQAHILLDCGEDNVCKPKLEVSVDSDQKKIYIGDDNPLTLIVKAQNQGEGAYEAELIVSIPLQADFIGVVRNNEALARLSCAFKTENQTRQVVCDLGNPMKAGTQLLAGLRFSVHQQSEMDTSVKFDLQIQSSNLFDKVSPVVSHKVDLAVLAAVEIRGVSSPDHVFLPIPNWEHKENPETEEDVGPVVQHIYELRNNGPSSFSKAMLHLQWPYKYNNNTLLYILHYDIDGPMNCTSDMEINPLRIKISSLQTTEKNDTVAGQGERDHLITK
# T1 sequence (P06756 891-1048 partner limits assumed): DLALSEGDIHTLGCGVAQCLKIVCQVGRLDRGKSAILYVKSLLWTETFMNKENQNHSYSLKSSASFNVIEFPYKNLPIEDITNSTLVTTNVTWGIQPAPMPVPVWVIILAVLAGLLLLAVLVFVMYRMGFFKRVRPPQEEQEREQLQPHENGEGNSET
# T1 sequence (P05106 27-788): as the sequence (P05106 27-788) above
Compound,IC50 (Human αvβ3; [1]),IC50 (GPIIb/IIIa; [2]),IC50 (Human αvβ3),IC50 (GPIIb/IIIa)
"Cc1c(C)c(C)c(S(=O)(=O)N[C@H](CC(=O)O)c2nc3ccc(/C=C/CNc4ccccn4)cc3c(=O)[nH]2)c(C)c1C [Compound 14, (βR)-3,4-dihydro-4-oxo-β-[[(2,3,4,5,6-pentamethylphenyl)sulfonyl]amino]-6-[(1E)-3-(2-pyridinylamino)-1-propenyl]-2-quinazolinepropanoic Acid]",25 nM,1800 nM,,
"COc1ccc(S(=O)(=O)N[C@@H](Cc2nc3ccc(/C=C/CNc4ccccn4)cc3c(=O)[nH]2)C(=O)O)cc1OC [Compound 33, α-[[(3,4-dimethoxyphenyl)sulfonyl]amino]-(αS)-3,4-dihydro-4-oxo-6-[(1E)-3-(2-pyridinylamino)-1-propenyl]-2-quinazolinepropanoic acid]",13 nM,1100 nM,,
"O=C(N[C@@H](Cc1nc2ccc(C#CCNC3=NCCN3)cc2c(=O)[nH]1)C(=O)O)OCc1ccccc1 [Compound 20, 6-[3-[(4,5-dihydro-1H-imidazol-2-yl)amino]-1-propynyl]-(αS)-3,4-dihydro-4-oxo-α-[[(phenylmethoxy)carbonyl]amino]-2-quinazolinepropanoic acid]",> 5000 nM,660 nM,,
"6-[(1E)-4-[[(aminoiminomethyl)amino]oxy]-1-butenyl]-(αS)-3,4-dihydro-4-oxo-α-[[(2,3,4,5,6-pentamethylphenyl)sulfonyl]amino]-2-quinazolinepropanoic Acid [Compound 16]",268 nM,36 nM,,
"O=C(O)[C@H](Cc1nc2ccc(/C=C/CNc3ccccn3)cc2c(=O)[nH]1)NS(=O)(=O)c1ccc(-c2ccon2)s1 [Compound 31, (αS)-3,4-dihydro-α-[[[5-(3-isoxazolyl)-2-thienyl]sulfonyl]amino]-4-oxo-6-[(1E)-3-(2-pyridinylamino)-1-propenyl]-2-quinazolinepropanoic acid]",70 nM,1800 nM,,
"O=C(O)[C@H](Cc1nc2ccc(/C=C/CNc3ccccn3)cc2c(=O)[nH]1)NS(=O)(=O)c1ccc(C(F)(F)F)cc1 [Compound 25, (αS)-3,4-dihydro-4-oxo-6-[(1E)-3-(2-pyridinylamino)-1-propenyl]-α-[[[4-(trifluoromethyl)phenyl]sulfonyl]amino]-2-quinazolinepropanoic acid]",72 nM,9600 nM,,
"CN(C)c1cccc2c(S(=O)(=O)N[C@@H](Cc3nc4ccc(/C=C/CNC5=NCCN5)cc4c(=O)[nH]3)C(=O)O)cccc12 [Compound 22, 6-[(1E)-3-[(4,5-dihydro-1H-imidazol-2-yl)amino]-1-propenyl]-α-[[[5-(dimethylamino)-1-naphthalenyl]sulfonyl]amino]-(αS)-3,4-dihydro-4-oxo-2-quinazolinepropanoic acid]",> 500 nM,1200 nM,,
"Cc1c(C)c(C)c(S(=O)(=O)N[C@@H](Cc2nc3ccc(/C=C/CN4CCCC4=N)cc3c(=O)[nH]2)C(=O)O)c(C)c1C [Compound 27, (αS)-3,4-dihydro-6-[(1E)-3-(2-imino-1-pyrrolidinyl)-1-propenyl]-4-oxo-α-[[(2,3,4,5,6-pentamethylphenyl)sulfonyl]amino]-2-quinazolinepropanoic acid]",120 nM,19 nM,,
"Cc1nn(C)c(Cl)c1S(=O)(=O)N[C@@H](Cc1nc2ccc(/C=C/CNc3ccccn3)cc2c(=O)[nH]1)C(=O)O [Compound 36, α-[[(5-chloro-1,3-dimethyl-1H-pyrazol-4-yl)sulfonyl]amino]-(αS)-3,4-dihydro-4-oxo-6-[(1E)-3-(2-pyridinylamino)-1-propenyl]-2-quinazolinepropanoic acid]",25 nM,2700 nM,,
"COc1ccc(S(=O)(=O)N[C@@H](Cc2nc3ccc(/C=C/CNc4ccc(Cl)cn4)cc3c(=O)[nH]2)C(=O)O)cc1 [Compound 40, 6-[(1E)-3-[(5-chloro-2-pyridinyl)amino]-1-propenyl]-(αS)-3,4-dihydro-α-[[(4-methoxyphenyl)sulfonyl]amino]-4-oxo-2-quinazolinepropanoic acid]",740 nM,1900 nM,,
"Cc1c(C)c(C)c(S(=O)(=O)N[C@@H](Cc2nc3ccc(/C=C/CNc4ccccn4)cc3c(=O)[nH]2)C(=O)O)c(C)c1C [Compound 10, (αS)-3,4-dihydro-4-oxo-α-[[(2,3,4,5,6-pentamethylphenyl)sulfonyl]amino]-6-[(1E)-3-(2-pyridinylamino)-1-propenyl]-2-quinazolinepropanoic Acid]",6.1 nM,640 nM,,
"COc1ccc(OC(=O)N[C@@H](Cc2nc3ccc(/C=C/CNC(=O)NCc4ccccc4)cc3c(=O)[nH]2)C(=O)O)cc1 [Compound 77, (αS)-3,4-dihydro-α-[[(4-methoxyphenoxy)carbonyl]amino]-4-oxo-6-[(1E)-3-[[[(phenylmethyl)amino]carbonyl]amino]-1-propenyl]-2-quinazolinepropanoic acid]",,,> 500 nM,46000 nM
"O=C(O)[C@H](Cc1nc2ccc(/C=C/CNc3ccccn3)cc2c(=O)[nH]1)NS(=O)(=O)c1cccs1 [Compound 34, (αS)-3,4-dihydro-4-oxo-6-[(1E)-3-(2-pyridinylamino)-1-propenyl]-α-[(2-thienylsulfonyl)amino]-2-quinazolinepropanoic acid]",83 nM,1600 nM,,
"Cc1cc(C)c(S(=O)(=O)N[C@@H](Cc2nc3ccc(/C=C/CNC4=NCCN4)cc3c(=O)[nH]2)C(=O)O)c(C)c1 [Compound 3, 6-[(1E)-3-[(4,5-dihydro-1H-imidazol-2-yl)amino]-1-propenyl]-(αS)-3,4-dihydro-4-oxo-a-[[(2,4,6-trimethylphenyl)sulfonyl]amino]-2-quinazolinepropanoic Acid]",3.2 nM,78 nM,,

# Continued, in another order:
IC50 (Human αvβ3; [1]),IC50 (GPIIb/IIIa; [2]),Compound,IC50 (Human αvβ3),IC50 (GPIIb/IIIa)
160 nM,4100 nM,"Cc1nn(C)c(Cl)c1S(=O)(=O)N[C@@H](Cc1nc2ccc(/C=C/CNC(=O)NCc3ccccc3)cc2c(=O)[nH]1)C(=O)O [Compound 65, α-[[(5-chloro-1,3-dimethyl-1H-pyrazol-4-yl)sulfonyl]amino]-(αS)-3,4-dihydro-4-oxo-6-[(1E)-3-[[[(phenylmethyl)amino]carbonyl]amino]-1-propenyl]-2-quinazolinepropanoic acid]",,
> 5000 nM,7100 nM,"Cc1coc(NC/C=C/c2ccc3nc(C[C@H](NS(=O)(=O)c4c(C)c(C)c(C)c(C)c4C)C(=O)O)[nH]c(=O)c3c2)n1 [Compound 81, (αS)-3,4-dihydro-6-[(1E)-3-[(4-methyl-2-oxazolyl)amino]-1-propenyl]-4-oxo-α-[[(2,3,4,5,6-pentamethylphenyl)sulfonyl]amino]-2-quinazolinepropanoic acid]",,
24 nM,110 nM,"Cc1c(C)c(C)c(S(=O)(=O)N[C@@H](Cc2nc3ccc(/C=C/CNC4=NCCCC4)cc3c(=O)[nH]2)C(=O)O)c(C)c1C [Compound 52, (αS)-3,4-dihydro-4-oxo-α-(α^2S)-[[(2,3,4,5,6-pentamethylphenyl)sulfonyl]amino]-6-[(1E)-3-[(3,4,5,6-tetrahydro-2-pyridinyl)amino]-1-propenyl]-2-quinazolinepropanoic acid]",,
150 nM,1100 nM,"C=C(CNC(=O)NC(C)C)c1ccc2nc(C[C@H](NS(=O)(=O)c3c(C)c(C)c(C)c(C)c3C)C(=O)O)[nH]c(=O)c2c1 [Compound 64, (αS)-3,4-dihydro-6-[1-[[[[(1-methylethyl)amino]carbonyl]amino]methyl]ethenyl]-4-oxo-α-[[(2,3,4,5,6-pentamethylphenyl)sulfonyl]amino]-2-quinazolinepropanoic acid]",,
550 nM,3200 nM,"O=C(NC/C=C/c1ccc2nc(C[C@H](NS(=O)(=O)Cc3ccccc3)C(=O)O)[nH]c(=O)c2c1)NCc1ccccc1 [Compound 70, (αS)-3,4-dihydro-4-oxo-6-[(1E)-3-[[[(phenylmethyl)amino]carbonyl]amino]-1-propenyl]-α-[[(phenylmethyl)sulfonyl]amino]-2-quinazolinepropanoic acid]",,
44 nM,2500 nM,"Cc1c(C)c(C)c(S(=O)(=O)N[C@@H](Cc2nc3ccc(/C=C/CNC(=O)NC(C)C)cc3c(=O)[nH]2)C(=O)O)c(C)c1C [Compound 58, (αS)-3,4-dihydro-6-[(1E)-3-[[[(1-methylethyl)amino]carbonyl]amino]-1-propenyl]-4-oxo-α-[[(2,3,4,5,6-pentamethylphenyl)sulfonyl]amino]-2-quinazolinepropanoic acid]",,

# — patent US7081460B2, “Quinazoline and quinazoline-like compounds for the treatment of integrin-mediated disorders” (Ortho-McNeil Pharmaceutical, Inc., priority 2001, dated 2006)
